PMC3627370 (Journal of the American Chemical Society, 2013)

Assays:
[1] = biological target: T1, nicotinamide phosphoribosyltransferase (NAMPT) (Homo sapiens, UniProt P43490); assay: dissociation constant determination at […] °C, pH […]; format: binding
[2] = biological target: T1, nicotinamide phosphoribosyltransferase (NAMPT); format: biochemical

T1 sequence (P43490 whole entry): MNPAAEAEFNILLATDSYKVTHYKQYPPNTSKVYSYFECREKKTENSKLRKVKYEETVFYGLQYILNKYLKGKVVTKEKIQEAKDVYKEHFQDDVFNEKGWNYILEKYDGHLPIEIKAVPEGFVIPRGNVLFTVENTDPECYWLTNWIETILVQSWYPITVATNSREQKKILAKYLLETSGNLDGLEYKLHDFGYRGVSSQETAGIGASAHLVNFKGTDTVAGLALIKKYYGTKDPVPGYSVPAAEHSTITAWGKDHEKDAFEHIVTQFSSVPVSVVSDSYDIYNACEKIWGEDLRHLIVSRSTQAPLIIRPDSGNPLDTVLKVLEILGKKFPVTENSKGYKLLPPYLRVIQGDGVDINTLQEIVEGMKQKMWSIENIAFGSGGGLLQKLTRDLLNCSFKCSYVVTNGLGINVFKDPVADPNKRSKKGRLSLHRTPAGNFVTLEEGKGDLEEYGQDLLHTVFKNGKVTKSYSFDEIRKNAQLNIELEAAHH

| Kd [1] [µM] | Ki [2] [µM] | Compound |
| --- | --- | --- |
| 34 ± 2 | – | NC(=O)c1ccc[n+]([C@@H]2O[C@H](COP(=O)([O-])O)[C@@H](O)[C@H]2O)c1 [NMN, nicotinamide mononucleotide] |
| – | 2.5 | O=[N+]([O-])c1ccc(O[C@@H]2O[C@H](COP(=O)(O)O)[C@@H](O)[C@H]2O)cc1 [5P-pNR, 5-phospho-p-nitrophenyl β-D-ribofuranoside] |
